Counter-ions that a name gives are not always drawn.
How the values were obtained:
Format in all cases: cell-based, SARS-CoV-2; human
2019-nCoV S-RBD/hACE2 = 2019-nCoV S-RBD/hACE2 (Severe acute respiratory syndrome coronavirus 2, UniProt P0DTC2)
[1] = biological target: Delta (B.1.617.2) S-RBD/hACE2 (Severe acute respiratory syndrome coronavirus 2, UniProt P0DTC2, L452R/T478K)
[2] = biological target: Omicron (BA.5) S-RBD/hACE2 (Severe acute respiratory syndrome coronavirus 2, UniProt P0DTC2, D405N/E484A/F486V/G339D/K417N/L452R/N440K/N501Y/Q498R/R408S/S371F/S373P/S375F/S477N/T376A/T478K/Y505H)

SMILES	Effect on S-RBD/hACE2 colocalisation (2019-nCoV S-RBD/hACE2)	Effect on S-RBD/hACE2 colocalisation [1]	Effect on S-RBD/hACE2 colocalisation [2]
CC(OC(=O)OC1CCCCC1)OC(=O)C1=C(CSc2nnnn2CC[NH+](C)C)CSC2C(NC(=O)Cc3csc(N)n3)C(=O)N12 (stereo not drawn) [CTM-HCl, cefotiam hexetil hydrochloride]	showed similar effects against all tested strains	showed similar effects against all tested strains	showed similar effects against all tested strains
CCCCCCCCC=CCCCCCCCC(=O)OCC(C[N+](C)(C)C)OC(=O)CCCCCCCC=CCCCCCCCC (stereo not drawn) [DOTAP, DOTAP chloride]	reduced colocalisation to all three S-RBD variants in a concentration-dependent manner	reduced colocalisation to all three S-RBD variants in a concentration-dependent manner	reduced colocalisation to all three S-RBD variants in a concentration-dependent manner
